Like-named read-outs stand apart in the source and are kept apart here. Non-standard residues stand in square brackets, D forms with d. Residues, ends and D or L forms follow the SMILES beside them. ξ: configuration not given here. *: point of attachment. d(β3hL) = CC(C)C[C@@H](N)CC(=O)O; hPhe = N[C@@H](CCc1ccccc1)C(=O)O; ξβ3hL = CC(C)CC(N)CC(=O)O; Boc = CC(C)(C)OC(=O)*; ξβ3hA = CC(N)CC(=O)O; OBn = c1ccc(CO*)cc1; GABA = NCCCC(=O)O; βAla = NCCC(=O)O
Columns and labels:
[1] = test system: cypris larvae of Striped Barnacle; details: Reference value, see Table 1 in non-Patent literature 8; cited from earlier work
[2] = test system: juvenile shellfish of Mediterranean mussel
Description: The sample was dissolved in ethanol to adjust to a concentration of 1 mg/mL. Thirty and 100 µL (30 and 100 µg) of the sample solutions were mixed with the solvent, and the mixtures were brought to a total volume of 500 µL. These mixtures were spread on the bottom surface of the glass beaker of the test container, and the solvent was volatilized by shaking them overnight.
A volume of 10 mL of the test seawater was added to the glass beakers of the test containers. The tests were initiated by introducing twelve test individuals into the test seawater in each beaker. The tests ended after three days, and the observation was conducted.
In Table 2, the terms "bottom surface-adhered individuals" and "wall surface-adhered individuals" refer to individuals that are adhered to the bottom surface and wall surface of the beaker, respectively; the term "bottom surface-crawling individuals" refers to individuals that move along the bottom surface without adhering; the term "overturned individuals or closed shell individuals (unadhered)" refers to individuals that are either overturned or in a closed shell without adhering to the bottom surface; and the term "number of byssal threads on the bottom surface" refers to the number of foot threads that are fixed to the bottom surface. In particular, the greater the reduction in the number of byssal threads, the stronger the effect of adhesion prevention.

[3] = test system: cypris larvae of Striped Barnacle
Description: (§1) After solutions of about 2 mL of the test compounds (tripeptides 2 to 10 and dipeptide 11) in ethanol were dispensed into each well of the 24-well polystyrene multi-well plate (3.2 mL/well, well diameter 15.5 mm, well height 17.6 mm, manufactured by Corning), the multi-well plate was air-dried to evaporate the ethanol.
(§2) The test compounds were aliquoted to achieve final concentrations of 0.03, 0.1, 0.3, 1, 3, and 10 µg/mL.
(§3) Subsequently, six individuals of the cypris larvae of Striped Barnacle (hereinafter simply referred to as "barnacle larvae") were transplanted into each well along with 2 mL of pre-filtered natural seawater. The multi-well plate was left standing in an incubator at 25°C, and the barnacle larvae were allowed to grow for two days at 25°C.
In the above procedure, a test for the control group was conducted by dispensing an ethanol solution without any test compound. […]
Forty-eight hours after the test started, the number of adhered individuals and the number of dead individuals of the barnacle larvae in each well were counted under a stereomicroscope. The adhesion rate (%) and mortality rate (%) of the barnacle larvae in each well were calculated, respectively. […]

[4] = test system: cypris larvae of Striped Barnacle; test: Evaluation of antifouling activities and toxicity against the cypris larvae of Striped Barnacle (24-well plate, adhesion and mortality after 48 h); format: in vivo, Amphibalanus amphitrite
Description: as §1, §2, §3
In the above procedure, a test for the control group was conducted by dispensing an ethanol solution without any test compound. The natural seawater used in the above test was prepared by diluting the natural seawater collected from the coastal area near Onjuku, Chiba Prefecture (salt concentration: 36 g/kg) with distilled water to adjust a salt concentration of 32 g/kg.
In the test group, the control group, and the comparison group, the tests were conducted in four times (four wells) for one concentration of each test compounds.
Forty-eight hours after the test started, the number of adhered individuals and the number of dead individuals of the barnacle larvae in each well were counted under a stereomicroscope. The adhesion rate (%) and mortality rate (%) of the barnacle larvae in each well were calculated, respectively. […] Similarly, for each test compound, a dose-mortality response curve was created to determine the half-maximal lethal concentration (48h LC50) that causes 50% mortality in the barnacle larvae. As a reference, the value of Boc-3 obtained from non-Patent literature 8 is also described.
In particular, the lower the settlement rate, the stronger the antifouling effect.

[5] = test system: juvenile shellfish of Mediterranean mussel; test: Evaluation of the antifouling activity and toxicity against the juvenile shellfish of Mediterranean mussel (coated glass beaker, 3 days); format: in vivo, Mytilus galloprovincialis; details: for bottom surface-adhered individuals % / bottom surface-crawling individuals % / overturned individuals or closed shell individuals (unadhered) % / wall surface-adhered individuals % / number of byssal threads on the bottom surface / bottom surface-adhered individuals No. / bottom surface-crawling individuals No. / overturned individuals or closed shell individuals (unadhered) No. / wall surface-adhered individuals No.: three days; for bottom surface-adhered individuals No. / bottom surface-crawling individuals No. / overturned individuals or closed shell individuals (unadhered) No. / wall surface-adhered individuals No.: twelve individuals; for antifouling effect (overall determination in words): juvenile Mediterranean mussel, 3.0 µg/mL and 10 µg/mL
Description: The sample was dissolved in ethanol to adjust to a concentration of 1 mg/mL. Thirty and 100 µL (30 and 100 µg) of the sample solutions were mixed with the solvent, and the mixtures were brought to a total volume of 500 µL. These mixtures were spread on the bottom surface of the glass beaker of the test container, and the solvent was volatilized by shaking them overnight. As a result, the samples to be evaluated were coated only on the bottom surface of the glass beaker.

[6] = test system: SF-295 (human glioblastoma cell line); details: Non-Patent Document 4; cited from earlier work
[7] = test system: KM20L2 (human colon cancer cell line); details: Non-Patent Document 4; cited from earlier work
[8] = test system: cypris larvae of the striped barnacle; details: Non-Patent Documents 5 and 7, cited from earlier work
[9] = test system: NCI-H460 (human lung cancer cell line); details: Non-Patent Document 4; cited from earlier work
[10] = 3 µg/mL (30 µg), twelve individuals, three days
[11] = Test Example 1, concentration that prevents adhesion of barnacle larvae by 50%, 48 h, 25°C, tested 0.03-10 µg/mL
[12] = Test Example 3, same manner as Test Example 1
[13] = Table 4 summary of results from Test Examples 1 to 3 (rounded)
[14] = Test Example 1, concentration causing 50% mortality in barnacle larvae, 48 h, 25°C, tested 0.03-10 µg/mL
[15] = 3 µg/mL (30 µg), control group 118

## CC(C)[C@@H](NC(=O)[C@@H]1CCCN1C(=O)[C@@H](NC(=O)OC(C)(C)C)[C@H](C)Cc1ccccc1)[C@@H](C)C(=O)OCc1ccccc1 [Boc-3]
[1]
  Toxicity 48h LC50: >10 µg/mL

## O=S(=O)([O-])[O-].[Cu+2] [Copper sulfate]
[2]; 3 µg/mL (30 µg), three days
  bottom surface-adhered individuals %: 0.0%
  bottom surface-crawling individuals %: 0.0%
  overturned individuals or closed shell individuals (unadhered) %: 100.0%
  wall surface-adhered individuals %: 0.0%
[2]; 3 µg/mL (30 µg), three days, control group 118
  number of byssal threads on the bottom surface: 2
[2]; [10]
  bottom surface-adhered individuals No.: 0
  bottom surface-crawling individuals No.: 0
  overturned individuals or closed shell individuals (unadhered) No.: 12
  wall surface-adhered individuals No.: 0
[2]; juvenile Mediterranean mussel, 3.0 µg/mL and 10 µg/mL
  antifouling effect (overall determination in words): high
[3]; [11]
  Antifouling activity 48h EC50: 0.41 µg/mL
[3]; [12]
  Antifouling activity 48h EC50: 0.3 µg/mL

## CC(C)C(NC(=O)[C@@H]1CCCN1C(=O)OC(C)(C)C)C(C)C(=O)OCc1ccccc1 (stereo partly shown) [dipeptide 11]
[4]; [13]
  Antifouling activity 48h EC50: 2.4 µg/mL
[4]; [14]
  Toxicity 48h LC50: >10 µg/mL
[4]; [11]
  Antifouling activity 48h EC50: 2.39 µg/mL

## CC(C)(C)OC(=O)N1CCC[C@H]1C(=O)Nc1ccccc1C(=O)OCc1ccccc1 [dipeptide 13, reference compound]
[4]; [13]
  Antifouling activity 48h EC50: 0.8 µg/mL
[4]; [12]
  Antifouling activity 48h EC50: 0.84 µg/mL
  Toxicity 48h LC50: >10 µg/mL

## CC(C)(C)OC(=O)N1CCC[C@H]1C(=O)N[C@@H](CC(=O)OCc1ccccc1)c1ccccc1 [dipeptide 14]
[4]; [13]
  Antifouling activity 48h EC50: 3.2 µg/mL
[4]; [12]
  Antifouling activity 48h EC50: 3.18 µg/mL
  Toxicity 48h LC50: >10 µg/mL

## CCOC(=O)[C@H](C)NC(=O)[C@@H]1CCCN1C(=O)[C@H](Cc1ccccc1)NC(=O)OC(C)(C)C [tripeptide 2] (Boc-Phe-Pro-Ala-OEt)
[4]; [13]
  Antifouling activity 48h EC50: >10 µg/mL
[4]; [14]
  Toxicity 48h LC50: >10 µg/mL
[4]; [11]
  Antifouling activity 48h EC50: >10 µg/mL

## CCOC(=O)[C@H](CC(C)C)NC(=O)[C@@H]1CCCN1C(=O)[C@H](Cc1ccccc1)NC(=O)OC(C)(C)C [tripeptide 3] (Boc-Phe-Pro-Leu-OEt)
[4]; [13]
  Antifouling activity 48h EC50: >10 µg/mL

## CCOC(=O)CCNC(=O)[C@@H]1CCCN1C(=O)[C@H](Cc1ccccc1)NC(=O)OC(C)(C)C [tripeptide 4] (Boc-Phe-Pro-[βAla]-OEt)
[4]; [13]
  Antifouling activity 48h EC50: >10 µg/mL
[4]; [14]
  Toxicity 48h LC50: >10 µg/mL
[4]; [11]
  Antifouling activity 48h EC50: >10 µg/mL

## CCOC(=O)CCCNC(=O)[C@@H]1CCCN1C(=O)[C@H](Cc1ccccc1)NC(=O)OC(C)(C)C [tripeptide 5] (Boc-Phe-Pro-[GABA]-OEt)
[4]; [13]
  Antifouling activity 48h EC50: >10 µg/mL
[4]; [14]
  Toxicity 48h LC50: >10 µg/mL
[4]; [11]
  Antifouling activity 48h EC50: >10 µg/mL

## CC(C)C(NC(=O)[C@@H]1CCCN1C(=O)[C@H](Cc1ccccc1)NC(=O)OC(C)(C)C)C(C)C(=O)OCc1ccccc1 (stereo partly shown) [tripeptide 6]
[4]; [13]
  Antifouling activity 48h EC50: 1.66 µg/mL
[4]; [14]
  Toxicity 48h LC50: >10 µg/mL
[4]; [11]
  Antifouling activity 48h EC50: 1.63 µg/mL

## CC(C)C(NC(=O)[C@@H]1CCCN1C(=O)[C@H](Cc1ccccc1)NC(=O)OC(C)(C)C)C(C)C(=O)O (stereo partly shown) [tripeptide 7]
[4]; [13]
  Antifouling activity 48h EC50: >10 µg/mL
[4]; [14]
  Toxicity 48h LC50: >10 µg/mL
[4]; [11]
  Antifouling activity 48h EC50: >10 µg/mL

## CC(C)CC(CC(=O)OCc1ccccc1)NC(=O)[C@@H]1CCCN1C(=O)[C@H](Cc1ccccc1)NC(=O)OC(C)(C)C (stereo partly drawn) [tripeptide 8] (Boc-Phe-Pro-[ξβ3hL]-OBn)
[5]; 3 µg/mL (30 µg)
  bottom surface-adhered individuals %: 16.7%
  bottom surface-crawling individuals %: 0.0%
  overturned individuals or closed shell individuals (unadhered) %: 58.3%
  wall surface-adhered individuals %: 25.0%
  bottom surface-adhered individuals No.: 2
  bottom surface-crawling individuals No.: 0
  overturned individuals or closed shell individuals (unadhered) No.: 7
  wall surface-adhered individuals No.: 3
[5]; [15]
  number of byssal threads on the bottom surface: 25
[5]; 10 µg/mL (100 µg)
  bottom surface-adhered individuals %: 16.7%
  bottom surface-crawling individuals %: 0.0%
  number of byssal threads on the bottom surface: 12
  overturned individuals or closed shell individuals (unadhered) %: 83.3%
  wall surface-adhered individuals %: 0.0%
  bottom surface-adhered individuals No.: 2
  bottom surface-crawling individuals No.: 0
  overturned individuals or closed shell individuals (unadhered) No.: 10
  wall surface-adhered individuals No.: 0
[5]
  antifouling effect (overall determination in words): exhibit an antifouling effect
[5]; listed as compound 8
  antifouling effect (overall determination in words): effective
[4]; [13]
  Antifouling activity 48h EC50: 1.1 µg/mL
[4]; [14]
  Toxicity 48h LC50: >10 µg/mL
[4]; [11]
  Antifouling activity 48h EC50: 1.13 µg/mL
[4]; cypris larvae of Striped Barnacle, within the tested concentration range
  antifouling activity (in words): effective

## CC(CC(=O)OCc1ccccc1)NC(=O)[C@@H]1CCCN1C(=O)[C@H](Cc1ccccc1)NC(=O)OC(C)(C)C (stereo partly drawn) [tripeptide 9] (Boc-Phe-Pro-[ξβ3hA]-OBn)
[5]; 3 µg/mL (30 µg)
  bottom surface-adhered individuals %: 75.0%
  bottom surface-crawling individuals %: 0.0%
  overturned individuals or closed shell individuals (unadhered) %: 16.7%
  wall surface-adhered individuals %: 8.3%
  bottom surface-adhered individuals No.: 9
  bottom surface-crawling individuals No.: 0
  overturned individuals or closed shell individuals (unadhered) No.: 2
  wall surface-adhered individuals No.: 1
[5]; [15]
  number of byssal threads on the bottom surface: 73
[5]; 10 µg/mL (100 µg)
  bottom surface-adhered individuals %: 58.3%
  bottom surface-crawling individuals %: 0.0%
  number of byssal threads on the bottom surface: 34
  overturned individuals or closed shell individuals (unadhered) %: 33.3%
  wall surface-adhered individuals %: 8.3%
  bottom surface-adhered individuals No.: 7
  bottom surface-crawling individuals No.: 0
  overturned individuals or closed shell individuals (unadhered) No.: 4
  wall surface-adhered individuals No.: 1
[5]
  antifouling effect (overall determination in words): effective

## CCOC(=O)CC(C)NC(=O)[C@@H]1CCCN1C(=O)[C@H](Cc1ccccc1)NC(=O)OC(C)(C)C (stereo partly drawn) [tripeptide 10] (Boc-Phe-Pro-[ξβ3hA]-OEt)
[5]; 3 µg/mL (30 µg)
  bottom surface-adhered individuals %: 66.7%
  bottom surface-crawling individuals %: 0.0%
  overturned individuals or closed shell individuals (unadhered) %: 8.3%
  wall surface-adhered individuals %: 25.0%
  bottom surface-adhered individuals No.: 8
  bottom surface-crawling individuals No.: 0
  overturned individuals or closed shell individuals (unadhered) No.: 1
  wall surface-adhered individuals No.: 3
[5]; [15]
  number of byssal threads on the bottom surface: 80
[5]; 10 µg/mL (100 µg)
  bottom surface-adhered individuals %: 58.3%
  bottom surface-crawling individuals %: 0.0%
  number of byssal threads on the bottom surface: 11.5
  overturned individuals or closed shell individuals (unadhered) %: 8.3%
  wall surface-adhered individuals %: 33.3%
  bottom surface-adhered individuals No.: 7
  bottom surface-crawling individuals No.: 0
  overturned individuals or closed shell individuals (unadhered) No.: 1
  wall surface-adhered individuals No.: 4
[5]
  antifouling effect (overall determination in words): ineffective

## CC(C)C[C@H](CC(=O)OCc1ccccc1)NC(=O)[C@@H]1CCCN1C(=O)[C@H](CCc1ccccc1)NC(=O)OC(C)(C)C [tripeptide 12] (Boc-[hPhe]-Pro-[d(β3hL)]-OBn)
[4]; [13]
  Antifouling activity 48h EC50: 0.5 µg/mL
[4]; [12]
  Antifouling activity 48h EC50: 0.49 µg/mL
  Toxicity 48h LC50: >10 µg/mL

## Dolastatin 16 [reference compound]
[6]
  growth-inhibiting effect (in words): growth-inhibiting effect
[5]; 3 µg/mL (30 µg)
  bottom surface-adhered individuals %: 75.0%
  bottom surface-crawling individuals %: 0.0%
  overturned individuals or closed shell individuals (unadhered) %: 0.0%
  wall surface-adhered individuals %: 25.0%
  bottom surface-adhered individuals No.: 9
  bottom surface-crawling individuals No.: 0
  overturned individuals or closed shell individuals (unadhered) No.: 0
  wall surface-adhered individuals No.: 3
[5]; [15]
  number of byssal threads on the bottom surface: 72
[5]; 10 µg/mL (100 µg)
  bottom surface-adhered individuals %: 100.0%
  bottom surface-crawling individuals %: 0.0%
  number of byssal threads on the bottom surface: 45
  overturned individuals or closed shell individuals (unadhered) %: 0.0%
  wall surface-adhered individuals %: 0.0%
  bottom surface-adhered individuals No.: 12
  bottom surface-crawling individuals No.: 0
  overturned individuals or closed shell individuals (unadhered) No.: 0
  wall surface-adhered individuals No.: 0
[5]
  antifouling effect (overall determination in words): no antifouling effect
[7]
  growth-inhibiting effect (in words): growth-inhibiting effect
[8]
  antifouling action (in words): antifouling actions
[8]; listed as synthetic Dolastatin 16
  antifouling action (in words): equivalent to that of the natural Dolastatin 16
[9]
  growth-inhibiting effect (in words): growth-inhibiting effect
